Source: US20050176655A1, “Novel macrolide derivatives havaing effect of potentiating antifungal activity” (priority 2002, published 2005)

Key:
Assay in all cases: Paper disk method, enhancing action for activities of azole antifungal agents
Assay type in all cases: cell-based
[1] = test system: Aspergillus niger ATCC 6275; conditions: 48 hours; for Inhibition activity (inhibition ring mm) A. niger ATCC 6275 GY / Transparency of the inhibition ring A. niger ATCC 6275 GY: GY medium (control, no azole); for Inhibition activity (inhibition ring mm) A. niger ATCC 6275 GYF / Transparency of the inhibition ring A. niger ATCC 6275 GYF: fluconazole 10 μg/ml; for Inhibition activity (inhibition ring mm) A. niger ATCC 6275 GYM / Transparency of the inhibition ring A. niger ATCC 6275 GYM: miconazole 0.1 μg/ml
Procedure, shortened: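 Paper-disk assay on A. niger ATCC 6275 spores (0.2%) seeded on GY agar pH 6.0. After 48 h, inhibition-zone diameter recorded in mm and transparency graded A (transparent) to E (opaque).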

[2] = test system: Candida albicans ATCC 64548; conditions: 24 hours; for Inhibition activity (inhibition ring mm) C. albicans ATCC 64548 GYM / Transparency of the inhibition ring C. albicans ATCC 64548 GYM: miconazole 0.03 μg/ml; for Inhibition activity (inhibition ring mm) C. albicans ATCC 64548 GYF / Transparency of the inhibition ring C. albicans ATCC 64548 GYF: fluconazole 0.5 μg/ml
Procedure, shortened: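 GY agar (pH 6.0) seeded with C. albicans ATCC 64548 precultured in Waksman broth at 27° C for 40 hours, supplemented with sub-growth-inhibitory miconazole 0.03 μg/ml or fluconazole 0.5 μg/ml. Paper disk method; inhibition-zone diameter (mm) read after 24 hours, transparency graded A–E.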

[3] = test system: fluconazole resistant Candida albicans ATCC 64550; conditions: 24 hours; for Inhibition activity (inhibition ring mm) C. albicans ATCC 64550 GYF / Transparency of the inhibition ring C. albicans ATCC 64550 GYF: fluconazole 30 μg/ml; for Inhibition activity (inhibition ring mm) C. albicans ATCC 64550 GYM / Transparency of the inhibition ring C. albicans ATCC 64550 GYM: miconazole 0.15 μg/ml
Procedure, shortened: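 Paper disk assay on GY agar (pH 6.0) seeded with Waksman-broth-grown C. albicans ATCC 64550 (0.1% inoculum). Medium was supplemented with sub-growth-inhibitory miconazole 0.15 μg/ml or fluconazole 30 μg/ml. After 24 h, inhibition-zone diameter was measured in mm and transparency graded A–E (A most transparent, E opaque).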

Row | SMILES | Inhibition activity (inhibition ring mm) A. niger ATCC 6275 GY ([1]; 50 μg/8 mm disk) [mm] | Transparency of the inhibition ring A. niger ATCC 6275 GY ([1]; 50 μg/8 mm disk) | Inhibition activity (inhibition ring mm) A. niger ATCC 6275 GYF ([1]; 50 μg/8 mm disk) [mm] | Transparency of the inhibition ring A. niger ATCC 6275 GYF ([1]; 50 μg/8 mm disk) | Inhibition activity (inhibition ring mm) A. niger ATCC 6275 GYM ([1]; 50 μg/8 mm disk) [mm] | Transparency of the inhibition ring A. niger ATCC 6275 GYM ([1]; 50 μg/8 mm disk) | Inhibition activity (inhibition ring mm) A. niger ATCC 6275 GY ([1]; 100 μg/8 mm disk) [mm] | Transparency of the inhibition ring A. niger ATCC 6275 GY ([1]; 100 μg/8 mm disk) | Inhibition activity (inhibition ring mm) A. niger ATCC 6275 GYF ([1]; 100 μg/8 mm disk) [mm] | Transparency of the inhibition ring A. niger ATCC 6275 GYF ([1]; 100 μg/8 mm disk) | Inhibition activity (inhibition ring mm) A. niger ATCC 6275 GYM ([1]; 100 μg/8 mm disk) [mm] | Transparency of the inhibition ring A. niger ATCC 6275 GYM ([1]; 100 μg/8 mm disk) | Inhibition activity (inhibition ring mm) C. albicans ATCC 64548 GYM ([2]; 50 μg/8 mm disk) [mm] | Transparency of the inhibition ring C. albicans ATCC 64548 GYM ([2]; 50 μg/8 mm disk) | Inhibition activity (inhibition ring mm) C. albicans ATCC 64548 GYM ([2]; 100 μg/8 mm disk) [mm] | Transparency of the inhibition ring C. albicans ATCC 64548 GYM ([2]; 100 μg/8 mm disk) | Inhibition activity (inhibition ring mm) C. albicans ATCC 64550 GYF ([3]; 10 μg/8 mm disk) [mm] | Transparency of the inhibition ring C. albicans ATCC 64550 GYF ([3]; 10 μg/8 mm disk) | Inhibition activity (inhibition ring mm) C. albicans ATCC 64550 GYF ([3]; 50 μg/8 mm disk) [mm] | Transparency of the inhibition ring C. albicans ATCC 64550 GYF ([3]; 50 μg/8 mm disk) | further results
1 | CCCCCC(=O)OC1C(C)OC(OC2C(C)C(=O)OC(C(C)(O)C(CC)OC(=O)CCCCC)C(C)C3=C(C)CC(C)(O3)C(OC3OC(C)CC(NC)C3O)C2C)CC1(C)OC (centres unmarked) [Compound 852] | 9 | E (Growth of test organism was inhibited 35% or less.) | 8 | D (Growth of test organism was inhibited 35% or more and 55% or less.) | 8 | C (Growth of test organism was inhibited 55% or more and 75% or less.) | 10 | E (Growth of test organism was inhibited 35% or less.) | 9 | D (Growth of test organism was inhibited 35% or more and 55% or less.) | 9 | A (Growth of test organism was inhibited 95% or more.) | 9 | A (Growth of test organism was inhibited 95% or more.) | 10 | A (Growth of test organism was inhibited 95% or more.) | 9 | C (Growth of test organism was inhibited 55% or more and 75% or less.) | 11 | A (Growth of test organism was inhibited 95% or more.) | Inhibition activity (inhibition ring mm) C. albicans ATCC 64550 GYM ([3]; 10 μg/8 mm disk): 9 mm; Transparency of the inhibition ring C. albicans ATCC 64550 GYM ([3]; 10 μg/8 mm disk): C (Growth of test organism was inhibited 55% or more and 75% or less.); Inhibition activity (inhibition ring mm) C. albicans ATCC 64550 GYM ([3]; 50 μg/8 mm disk): 10 mm; Transparency of the inhibition ring C. albicans ATCC 64550 GYM ([3]; 50 μg/8 mm disk): B (Growth of test organism was inhibited 75% of more and 95% or less.); Inhibition activity (inhibition ring mm) C. albicans ATCC 64550 GYF ([3]; 100 μg/8 mm disk): 12 mm; Transparency of the inhibition ring C. albicans ATCC 64550 GYF ([3]; 100 μg/8 mm disk): A (Growth of test organism was inhibited 95% or more.); Inhibition activity (inhibition ring mm) C. albicans ATCC 64550 GYM ([3]; 100 μg/8 mm disk): 12 mm; Transparency of the inhibition ring C. albicans ATCC 64550 GYM ([3]; 100 μg/8 mm disk): B (Growth of test organism was inhibited 75% of more and 95% or less.)
2 | CCCCCC(=O)OC1C(C)OC(OC2C(C)C(=O)OC(C(C)(O)C(CC)OC(=O)CCCCC)C(C)C3=C(C)CC(C)(O3)C(OC3OC(C)CC(N(C)CC)C3O)C2C)CC1(C)OC (centres unmarked) [Compound 853, 4″,13-Di-O-hexanoyl-de(3′-N-methyl)-N-ethyl-8,9-Anhydro-pseudoerythromycin A 6,9-hemiketal] | 12 | D (Growth of test organism was inhibited 35% or more and 55% or less.) | 13 | B (Growth of test organism was inhibited 75% of more and 95% or less.) | 15 | B (Growth of test organism was inhibited 75% of more and 95% or less.) | 13 | D (Growth of test organism was inhibited 35% or more and 55% or less.) | 14 | B (Growth of test organism was inhibited 75% of more and 95% or less.) | 16 | B (Growth of test organism was inhibited 75% of more and 95% or less.) | 14 | A (Growth of test organism was inhibited 95% or more.) | 15 | A (Growth of test organism was inhibited 95% or more.) | 11 | D (Growth of test organism was inhibited 35% or more and 55% or less.) | 14 | A (Growth of test organism was inhibited 95% or more.) | Inhibition activity (inhibition ring mm) A. niger ATCC 6275 GY ([1]; 10 μg/8 mm disk): 10 mm; Transparency of the inhibition ring A. niger ATCC 6275 GY ([1]; 10 μg/8 mm disk): E (Growth of test organism was inhibited 35% or less.); Inhibition activity (inhibition ring mm) A. niger ATCC 6275 GYF ([1]; 10 μg/8 mm disk): 9 mm; Transparency of the inhibition ring A. niger ATCC 6275 GYF ([1]; 10 μg/8 mm disk): E (Growth of test organism was inhibited 35% or less.); Inhibition activity (inhibition ring mm) A. niger ATCC 6275 GYM ([1]; 10 μg/8 mm disk): 10 mm; Transparency of the inhibition ring A. niger ATCC 6275 GYM ([1]; 10 μg/8 mm disk): E (Growth of test organism was inhibited 35% or less.); Inhibition activity (inhibition ring mm) C. albicans ATCC 64548 GYF ([2]; 10 μg/8 mm disk): 9 mm; Transparency of the inhibition ring C. albicans ATCC 64548 GYF ([2]; 10 μg/8 mm disk): E (Growth of test organism was inhibited 35% or less.); Inhibition activity (inhibition ring mm) C. albicans ATCC 64548 GYM ([2]; 10 μg/8 mm disk): 10 mm; Transparency of the inhibition ring C. albicans ATCC 64548 GYM ([2]; 10 μg/8 mm disk): B (Growth of test organism was inhibited 75% of more and 95% or less.); Inhibition activity (inhibition ring mm) C. albicans ATCC 64548 GYF ([2]; 50 μg/8 mm disk): 14 mm; Transparency of the inhibition ring C. albicans ATCC 64548 GYF ([2]; 50 μg/8 mm disk): B (Growth of test organism was inhibited 75% of more and 95% or less.); Inhibition activity (inhibition ring mm) C. albicans ATCC 64548 GYF ([2]; 100 μg/8 mm disk): 16 mm; Transparency of the inhibition ring C. albicans ATCC 64548 GYF ([2]; 100 μg/8 mm disk): B (Growth of test organism was inhibited 75% of more and 95% or less.); Inhibition activity (inhibition ring mm) C. albicans ATCC 64550 GYM ([3]; 50 μg/8 mm disk): 15 mm; Transparency of the inhibition ring C. albicans ATCC 64550 GYM ([3]; 50 μg/8 mm disk): A (Growth of test organism was inhibited 95% or more.); Inhibition activity (inhibition ring mm) C. albicans ATCC 64550 GYF ([3]; 100 μg/8 mm disk): 15 mm; Transparency of the inhibition ring C. albicans ATCC 64550 GYF ([3]; 100 μg/8 mm disk): A (Growth of test organism was inhibited 95% or more.); Inhibition activity (inhibition ring mm) C. albicans ATCC 64550 GYM ([3]; 100 μg/8 mm disk): 16 mm; Transparency of the inhibition ring C. albicans ATCC 64550 GYM ([3]; 100 μg/8 mm disk): A (Growth of test organism was inhibited 95% or more.)
